Values of other authors in PMC12648288, “Drastic Impact of Donor Substituents on Xanthenes in the PDT of Glioblastoma” (JACS Au, 2025).
Where two headings read alike, the source gives them in different places. No end group written: not given here. TPC = chlorin-type photosensitizer; Ahx = NCCCCCC(=O)O

How the values were obtained:
SNB-19 = system: SNB-19; parameters: method as in ref 11 (SI list); settings: ref 11 (SI list); cited from earlier work
[1] = cited from earlier work
U87MG = settings: cited from earlier work; for IC50: 32 (SI list)
HUVEC = system: HUVEC; parameters: method as in ref 16 (SI list); settings: ref 16 (SI list); cited from earlier work
T98G = settings: ref 28 (SI list); cited from earlier work
F98 = settings: 31 (SI list); cited from earlier work
A172 = system: A172; parameters: method as in ref 29 (SI list); settings: ref 29 (SI list); cited from earlier work
DBTRG-05 = system: DBTRG-05; parameters: method as in ref 29 (SI list); settings: ref 29 (SI list); cited from earlier work
[2] = in MeOH, as fraction; cited from earlier work
[3] = measured in PBS (pH 7.4), 22-32 (SI list)

Compound: COc1cc(/C=C/C(=O)CC(=O)/C=C/c2ccc(O)c(OC)c2)ccc1O [Curcumin (CUR), Curcumin]
- IC50 (SNB-19): 5.74 µM

Compound: CCCCCCOC(C)c1c(C)c2cc3nc(c4c5[nH]c(cc6nc(cc1[nH]2)C(C)=C6CC)c(C)c5C(=O)C4)C(CCC(=O)Nc1ccc(SC2=C(C=CC4=[N+](CCCCS(=O)(=O)[O-])c5ccc6ccccc6c5C4(C)C)CCCC2=CC=C2N(CCCCS(=O)(=O)[O-])c4ccc5ccccc5c4C2(C)C)cc1)C3C.[Na+] (centres unmarked) [HPPH-CD]
- Abs (nm) [1, 3]: 848 nm
- IC50 (U87MG): 1630 nM

Compound: CN(C)c1ccc2cc3ccc(N(C)C)cc3nc2c1 [Acridine Orange]
- Abs (nm) [1, 3]: 487 nm

Compound: Benzoporphyrin derivative [Benzoporphyrin derivative (BPD)]
- Abs (nm) [1, 3]: 692 nm
- IC50 (U87MG): 13100 nM

Compound: [Zn+2].c1ccc2c(c1)-c1nc-2nc2[n-]c(nc3nc([n-]c4nc(n1)-c1ccccc1-4)-c1ccccc1-3)c1ccccc21 [ZnPc]
- Abs (nm) [1, 3]: 645 nm

Compound: TPC–Ahx–ATWLPPR: chlorin-type photosensitizer conjugated to neuropilin-1 targeting peptide (SI ref 16) ({TPC-Ahx}-ATWLPPR)
- Abs (nm) ([1]; EtOH, 16 (SI list)): 420 nm
- IC50 (HUVEC): 171 µM

Compound: COc1c(CC(C)O)c2c3c(CC(C)O)c(OC)c(=O)c4c(O)cc5c(c6c(cc(O)c(c1=O)c62)OCO5)c43 (centres unmarked) [Cercosporin]
- LD50 (T98G): 4 µM
- Abs (nm) [1, 3]: 473 nm
- LD50 (U87MG; ref 28 (SI list)): 4 µM

Compound: C=Cc1c(C)c2cc3nc(cc4nc(cc5[nH]c(cc1[nH]2)c(C)c5C(C)OC(C)c1c(C)c2cc5[nH]c(cc6nc(cc7nc(cc1[nH]2)C(C)=C7CCC(=O)[O-])C(CCC(=O)[O-])=C6C)c(C)c5C=C)C(C)=C4CCC(=O)[O-])C(CCC(=O)[O-])=C3C.[Na+].[Na+].[Na+].[Na+] (centres unmarked) [Sinoporphyrin sodium (DVDMS), Sinoporphyrin sodium]
- Abs (nm) [1, 3]: 631 nm

Compound: [(Ph2phen)2Os(dpp)]2+
- Abs (nm) [1, 3]: 650 nm
- IC50 (F98): 86.1 µM

Compound: Cc1ccnc(-c2cc(C)ccn2)c1.Cc1ccnc(-c2cc(C)ccn2)c1.[Cl-].[Cl-].[Ru+2].c1csc(-c2ccc(-c3ccc(-c4nc5c6cccnc6c6ncccc6c5[nH]4)s3)s2)c1 [TLD1433]
- Abs (nm) [1, 3]: 416 nm
- IC50 (U87MG): 51 nM
- IC50 (F98): 2.81 µM

Compound: Tetrahydroporphyrin-Tetratosylat [THPTS]
- IC30 (A172): 10 µM
- Abs (nm) [1, 3]: 760 nm
- IC30 (DBTRG-05): 4 µM
- IC30 (U87MG; ref 29 (SI list)): 2 µM

Compound: CN(C)c1ccc2nc3ccc(=[N+](C)C)cc-3sc2c1 [methylene blue]
- ΦF of reference standard [2]: 0.23
